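The concentration for 50% growth inhibition is given as GI50. At the TGI there is no net growth.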
Columns and labels:
Assay in all cases: growth of human tumour cells (NCI), 384-well format
SK-MEL-5 melanoma = test system: SK-MEL-5 melanoma
BT-549 breast = test system: BT-549 breast
SNB-75 CNS = test system: SNB-75 CNS
HL-60(TB) leukemia = test system: HL-60(TB) leukemia
SF-268 CNS = test system: SF-268 CNS
SK-MEL-28 melanoma = test system: SK-MEL-28 melanoma
OVCAR-3 ovarian = test system: OVCAR-3 ovarian
UO-31 renal = test system: UO-31 renal
MCF7 breast = test system: MCF7 breast
HOP-62 NSCLC = test system: HOP-62 NSCLC
SK-OV-3 ovarian = test system: SK-OV-3 ovarian
HCT-15 colon = test system: HCT-15 colon
HCC-2998 colon = test system: HCC-2998 colon
MDA-MB-231 breast = test system: MDA-MB-231 breast
786-0 renal = test system: 786-0 renal
OVCAR-8 ovarian = test system: OVCAR-8 ovarian
T-47D breast = test system: T-47D breast
MOLT-4 leukemia = test system: MOLT-4 leukemia
NCI-H322M lung = test system: NCI-H322M lung
LOX IMVI melanoma = test system: LOX IMVI melanoma
OVCAR-4 ovarian = test system: OVCAR-4 ovarian
A498 renal = test system: A498 renal
NCI-H226 lung = test system: NCI-H226 lung
MDA-MB-435 melanoma = test system: MDA-MB-435 melanoma
SN12C renal = test system: SN12C renal
CCRF-CEM leukemia = test system: CCRF-CEM leukemia
KM12 colon = test system: KM12 colon
PC-3 prostate = test system: PC-3 prostate
COLO 205 colon = test system: COLO 205 colon
DU-145 prostate = test system: DU-145 prostate
HS 578T breast = test system: HS 578T breast
IGROV1 ovarian = test system: IGROV1 ovarian
HCT-116 colon = test system: HCT-116 colon
U251 glioblastoma = test system: U251 glioblastoma
UACC-257 melanoma = test system: UACC-257 melanoma
MDA-MB-468 breast = test system: MDA-MB-468 breast
NCI/ADR-RES ovarian = test system: NCI/ADR-RES ovarian
SR leukemia = test system: SR leukemia
RXF 393 renal = test system: RXF 393 renal
NCI-H23 lung = test system: NCI-H23 lung
NCI-H460 NSCLC = test system: NCI-H460 NSCLC
SF-539 CNS = test system: SF-539 CNS
SW-620 colon = test system: SW-620 colon
SF-295 CNS = test system: SF-295 CNS
OVCAR-5 ovarian = test system: OVCAR-5 ovarian
ACHN renal = test system: ACHN renal
MALME-3M melanoma = test system: MALME-3M melanoma
TK-10 renal = test system: TK-10 renal
A549 NSCLC = test system: A549 NSCLC
UACC-62 melanoma = test system: UACC-62 melanoma
NCI-H522 lung = test system: NCI-H522 lung
SNB-19 CNS = test system: SNB-19 CNS
CAKI-1 renal = test system: CAKI-1 renal
M14 melanoma = test system: M14 melanoma
EKVX NSCLC = test system: EKVX NSCLC
HT29 colon = test system: HT29 colon
HOP-92 NSCLC = test system: HOP-92 NSCLC
RPMI-8226 leukemia = test system: RPMI-8226 leukemia

## CN1CCN(c2ccc(C(=O)Nc3n[nH]c4ccc(Cc5cc(F)cc(F)c5)cc34)c(NC3CCOCC3)c2)CC1
SK-MEL-5 melanoma
  GI50: 1590 nM
  TGI: 2940 nM
BT-549 breast
  GI50: 1730 nM
  TGI: 3120 nM
SNB-75 CNS
  GI50: 1370 nM
  TGI: 2670 nM
HL-60(TB) leukemia
  GI50: 1830 nM
  TGI: 3240 nM
SF-268 CNS
  GI50: 1600 nM
  TGI: 2970 nM
SK-MEL-28 melanoma
  GI50: 1670 nM
  TGI: 3040 nM
OVCAR-3 ovarian
  GI50: 1050 nM
  TGI: 2290 nM
UO-31 renal
  GI50: 1590 nM
  TGI: 2950 nM
MCF7 breast
  GI50: 1140 nM
  TGI: 2370 nM
HOP-62 NSCLC
  GI50: 1430 nM
  TGI: 2750 nM
SK-OV-3 ovarian
  GI50: 1430 nM
  TGI: 2760 nM
HCT-15 colon
  GI50: 1160 nM
  TGI: 2410 nM
HCC-2998 colon
  GI50: 1030 nM
  TGI: 2220 nM
MDA-MB-231 breast
  GI50: 1230 nM
  TGI: 2480 nM
786-0 renal
  GI50: 1510 nM
  TGI: 2850 nM
OVCAR-8 ovarian
  GI50: 1660 nM
  TGI: 3040 nM
T-47D breast
  GI50: 1350 nM
  TGI: 2650 nM
MOLT-4 leukemia
  GI50: 1360 nM
  TGI: 2650 nM
NCI-H322M lung
  GI50: 1470 nM
  TGI: 2790 nM
LOX IMVI melanoma
  GI50: 1530 nM
  TGI: 2870 nM
OVCAR-4 ovarian
  GI50: 1020 nM
  TGI: 2230 nM
A498 renal
  GI50: 1710 nM
  TGI: 3090 nM
NCI-H226 lung
  GI50: 727 nM
  TGI: 2070 nM
MDA-MB-435 melanoma
  GI50: 1690 nM
  TGI: 3070 nM
SN12C renal
  GI50: 1210 nM
  TGI: 2480 nM
CCRF-CEM leukemia
  GI50: 1870 nM
  TGI: 3300 nM
KM12 colon
  TGI: 1370 nM
PC-3 prostate
  GI50: 1230 nM
  TGI: 2480 nM
COLO 205 colon
  GI50: 1720 nM
  TGI: 3120 nM
DU-145 prostate
  GI50: 1550 nM
  TGI: 2890 nM
HS 578T breast
  GI50: 1530 nM
  TGI: 2860 nM
IGROV1 ovarian
  GI50: 1010 nM
  TGI: 2210 nM
HCT-116 colon
  GI50: 1500 nM
  TGI: 2850 nM
U251 glioblastoma
  GI50: 1680 nM
  TGI: 3060 nM
UACC-257 melanoma
  GI50: 1550 nM
  TGI: 2900 nM
MDA-MB-468 breast
  GI50: 1120 nM
  TGI: 2330 nM
NCI/ADR-RES ovarian
  GI50: 1550 nM
  TGI: 2900 nM
SR leukemia
  GI50: 24.3 nM
  TGI: 55.4 nM
RXF 393 renal
  GI50: 825 nM
  TGI: 2200 nM
NCI-H23 lung
  GI50: 1230 nM
  TGI: 2480 nM
NCI-H460 NSCLC
  GI50: 1570 nM
  TGI: 2950 nM
SF-539 CNS
  GI50: 1680 nM
  TGI: 3060 nM
SW-620 colon
  GI50: 1490 nM
  TGI: 2840 nM
SF-295 CNS
  GI50: 1680 nM
  TGI: 3050 nM
OVCAR-5 ovarian
  GI50: 1480 nM
  TGI: 2840 nM
ACHN renal
  GI50: 1540 nM
  TGI: 2880 nM
MALME-3M melanoma
  GI50: 1270 nM
  TGI: 2530 nM
TK-10 renal
  GI50: 1570 nM
  TGI: 2930 nM
A549 NSCLC
  GI50: 1410 nM
  TGI: 2730 nM
UACC-62 melanoma
  GI50: 1600 nM
  TGI: 2960 nM
NCI-H522 lung
  GI50: 1400 nM
  TGI: 2710 nM
SNB-19 CNS
  GI50: 1700 nM
  TGI: 3110 nM
CAKI-1 renal
  GI50: 1630 nM
  TGI: 3000 nM
M14 melanoma
  GI50: 1690 nM
  TGI: 3060 nM
EKVX NSCLC
  GI50: 1200 nM
  TGI: 2460 nM
HT29 colon
  GI50: 1300 nM
  TGI: 2610 nM
HOP-92 NSCLC
  GI50: 1140 nM
  TGI: 2360 nM
RPMI-8226 leukemia
  GI50: 1350 nM
  TGI: 2650 nM

— PubChem BioAssay (NCI)
